For six molecules, IC50 and Activity results are on record in ChEMBL document CHEMBL4414604, “Anti-inflammatory Chalcone-Isoflavone Dimers and Chalcone Dimers from Caragana jubata” (J Nat Prod, 2019).

Where only a bound is given, the exact number is not on record here.

Data set [1] deals with RAW264.7. As to the kind of experiment: Antiinflammatory activity against mouse RAW264.7 cells assessed as inhibition of LPS-induced IL-6 secretion after 24 hrs by ELISA. The class given is functional, cell-based. Conditions: RAW264.7, 24 h.
The subject of data set [2] is RAW264.7. The experiment in a line: Antiinflammatory activity against mouse RAW264.7 cells assessed as inhibition of LPS-induced TNF-alpha secretion after 24 hrs by ELISA. The class given is functional, cell-based. Conditions: RAW264.7, 24 h. (An ELISA detects its analyte on a solid surface through an enzyme-linked reagent.)
The test system of data set [3] is RAW264.7. As to the kind of experiment: Antiinflammatory activity against mouse RAW264.7 cells assessed as inhibition of LPS-induced NO production incubated for 24 hrs by Griess reagent-based assay. The format is functional, cell-based. Conditions: RAW264.7, 24 h. (In general: Griess reagent forms a coloured azo dye with nitrite.)
Data set [4] deals with RAW264.7. As to the kind of experiment: Cytotoxicity against mouse RAW264.7 cells assessed as reduction in cell viability at 50 uM by MTT assay. The class given is cell-based. The following applies: raw264.7, 50 µM.

For `COc1ccc(/C=C/[C@H](c2ccc(O)cc2)c2cc(-c3coc4cc(OC)cc(O)c4c3=O)c(O)cc2O)c(OC)c1`, the IC50 – broadly, the point on the concentration scale where inhibition reaches its midpoint – in the data set on RAW264.7 [1] is 32.6 µM; with RAW264.7 [2], 20.5 µM; in the data set with RAW264.7 [3], 4.1 µM. Further, in the data set with RAW264.7 [4], the Activity entry is listed as “Non-Toxic”.

For the molecule `COc1ccc2c(c1)O[C@@]1(/C=C/c3ccc(O)cc3)c3ccc(OC)cc3O[C@H]2[C@H]1Cc1ccc(O)cc1`, the IC50 in the data set on RAW264.7 [1] is 26.8 µM; in the data set with RAW264.7 [2], 14.7 µM; in the data set with RAW264.7 [3] it was 5.2 µM. Also, the Activity result in the data set on RAW264.7 [4] is given as “Non-Toxic”.

Consider `COc1ccc2c(c1)O[C@@H](c1ccc(OC)cc1OC)[C@H](Cc1ccc(O)cc1)[C@H]2/C=C/c1ccc(O)cc1`, for which the half-maximal inhibitory concentration (IC50) in the data set on RAW264.7 [1] amounted to 31.4 µM; in the data set with RAW264.7 [2] it was 26.7 µM; with RAW264.7 [3], 25.6 µM. In addition, the Activity entry in the data set with RAW264.7 [4] is given as “Non-Toxic”.

For the molecule `COc1ccc([C@H](/C=C/c2ccc(O)cc2)c2cc(-c3coc4cc(OC)cc(O)c4c3=O)c(O)cc2O)c(OC)c1`, the half-maximal inhibitory concentration (IC50) was over 50 µM with RAW264.7 [1], 11.4 µM in the data set on RAW264.7 [2] and 25.7 µM in the data set with RAW264.7 [3]. Further, in the data set with RAW264.7 [4], the Activity entry is given as “Non-Toxic”.

`C[C@@H]1C[C@H]2[C@@H]3CCC4=CC(=O)C=C[C@]4(C)[C@@]3(F)[C@@H](O)C[C@]2(C)[C@@]1(O)C(=O)CO` [DEXAMETHASONE]: the IC50 in the data set with RAW264.7 [1] stood at 8.4 µM; in the data set on RAW264.7 [2], 6.1 µM; in the data set with RAW264.7 [3], 6 µM.

In the case of `C[C@H]1[C@H](C)CC[C@]2(C=O)CC[C@]3(C)C(=CC[C@@H]4[C@@]5(C)CC[C@H](O)C(C)(C)[C@@H]5CC[C@]43C)[C@H]12` [OLEANOALDEHYDE], the half-maximal inhibitory concentration (IC50) in the data set with RAW264.7 [3] was determined as 18.6 µM. Moreover, in the data set with RAW264.7 [4], the Activity entry is given as “Non-Toxic”.
